From the supplement of paper PMC13380429

Columns and labels:
[1] = tested on: A549-ACE2 infected with SARS-CoV-2; assay: SARS-CoV-2 infection rate relative to DMSO; higher = more infection; conditions: 24 h
U2OS [2] = assay: drug sensitivity score (DSS) for viability; higher = more toxic; extreme values may be limits of the assay; conditions: 72 h
HepG2 [3] = assay: as above; conditions: 72 h
Vero E6 [4] = assay: as above; conditions: 72 h
Calu-3 [5] = assay: as above; conditions: 72 h
Caco-2 [6] = assay: as above; conditions: 72 h
U2OS [7] = assay: relative viability EC50 (midpoint between 100% and the lowest measured viability); higher = less toxic; conditions: 72 h
HepG2 [8] = assay: as above; conditions: 72 h
Vero E6 [9] = assay: as above; conditions: 72 h
Calu-3 [10] = assay: as above; conditions: 72 h
A549-ACE2 = assay: drug-induced phospholipidosis relative to tamoxifen; higher = more phospholipidosis
U2OS [11] = assay: cell viability relative to DMSO; higher = less toxic; conditions: 72 h
HepG2 [12] = assay: as above; conditions: 72 h
Vero E6 [13] = assay: as above; conditions: 72 h
Calu-3 [14] = assay: as above; conditions: 72 h
Caco-2 [15] = assay: as above; conditions: 72 h
[16] = tested on: A549-ACE2 infected with SARS-CoV-2; assay: morphology score (similarity to uninfected cells); higher = more like uninfected cells; conditions: 24 h
[17] = tested on: A549-ACE2 infected with SARS-CoV-2; assay: cell count relative to DMSO; higher = less toxic; conditions: 24 h

CCCCCC(=O)O[C@]1(C(C)=O)CC[C@H]2[C@@H]3CCC4=CC(=O)CC[C@]4(C)[C@H]3CC[C@@]21C [17-hydroxyprogesterone-caproate]
Conditions | SARS-CoV-2 infection rate, [1] [%] | cell count, [17] [%] | cell viability, Caco-2 [15] [%] | cell viability, Calu-3 [14] [%] | cell viability, HepG2 [12] [%] | cell viability, U2OS [11] [%] | cell viability, Vero E6 [13] [%] | morphology score, [16]
1 nM | – | – | 92.7 | 86.9 | 97.1 | 98.1 | 97.8 | –
10 nM | – | – | 95.9 | 99 | 96.6 | 95.7 | 103 | –
100 nM | – | – | 107 | 100 | 98 | 99.7 | 95.1 | –
0.3 µM | 95 | 103 | – | – | – | – | – | 0.25
1000 nM | – | – | 92.8 | 88.6 | 97.6 | 99.4 | 95.4 | –
3 µM | 88 | 104 | – | – | – | – | – | 0.34
10 µM | 81 | 106 | – | – | – | – | – | 0.47
10000 nM | – | – | 64.7 | 99.5 | 94.8 | 95.9 | 103 | –
30 µM | 34 | 104 | – | – | – | – | – | 0.79

Conditions | drug sensitivity score | relative viability EC50 [µM]
Caco-2 [6] | 2.8 | –
Calu-3 [5] | 0 | –
Calu-3 [10] | – | > 10
HepG2 [3] | 0 | –
HepG2 [8] | – | > 10
U2OS [2] | 0 | –
U2OS [7] | – | > 10
Vero E6 [4] | 0 | –
Vero E6 [9] | – | > 10

drug-induced phospholipidosis [%], A549-ACE2
Conditions | 0.3 µM | 0.833333 µM | 3.33333 µM | 6.66667 µM | 10 µM | 30 µM
24 h | 6.66 | 6.09 | 4.63 | 8.81 | 8.05 | 21.5
48 h | 5.77 | 4.75 | 0.98 | 3.88 | 3.43 | 9.55
72 h | 6.76 | 2.38 | 2.24 | 4.3 | 4.77 | 13.6
